Experiment [1] relates to HeLa. The experiment in a line: Cytotoxicity against human HeLa cells after 72 hrs by MTT assay. It counts as cell-based. Background: Tetrazolium dyes change colour on reduction, which living cells bring about.
Experiment [2] has as its system Plasmodium falciparum. The experiment in a line: Antiplasmodial activity against Plasmodium falciparum 3D7 […] after 72 hrs by NBT dye based LDH assay. The experiment is classed as functional, organism-based. To be noted: 3D7, 72 h.

The IC50 is the concentration at which inhibition is half-maximal. A lower IC50 goes with higher potency. `CC[C@H](C)[C@H](NC(=O)[C@H](CC(C)C)N(C)C(=O)CCCCCCCCNC(=O)CCCc1ccc(O)cc1)C(=O)N(C)[C@@H](C(=O)N[C@@H](CCC(N)=O)C(=O)N1CCC[C@H]1C(=O)N(C)[C@@H](Cc1ccccc1)C(=O)N1CCC[C@H]1C(=O)OC)C(C)C`: the figures for the IC50 in experiment [1] and in experiment [2] were 29 µM and 1000 nM, respectively.
For `CC[C@H](C)[C@H](NC(=O)[C@H](CC(C)C)N(C)C(=O)CCCCCNC(=O)CCCc1ccc(O)cc1)C(=O)N(C)[C@@H](C(=O)N[C@@H](CCC(N)=O)C(=O)N[C@H](C(=O)N(C)[C@H](Cc1ccccc1)C(=O)N1CCC[C@H]1C(=O)OC)C(C)C)C(C)C`, in that order: 14 µM and 520 nM.

(Values after ChEMBL document CHEMBL4266036, “Hoshinoamides A and B, Acyclic Lipopeptides from the Marine Cyanobacterium Caldora penicillata” (J Nat Prod, 2018).)
